Results as given in a melting point compilation (Tetko et al.; mined from patent text by program, amines drawn as free bases though some values may be those of a salt).

Row | SMILES | melting point [°C]
1 | Cc1nn(-c2ccccn2)c2[nH]c3cccc(C(=O)O)c3c(=O)c12 | 303 to 306
2 | COC(c1ccc(NC(=O)c2c(C)nn(C)c2C)cc1CC(C)C)(C(F)(F)F)C(F)(F)F | 189 to 190
3 | COc1ccc2c(NC(C)=O)c(C(=O)c3ccccc3)[nH]c2c1 | 144 to 146
4 | OC(Cn1ncc2c(Br)ncnc21)c1ccccc1 (stereo not given) | 146 to 147
5 | CC1(C)OC(=O)Nc2ccc(-c3cc(F)cc(-c4ccsc4)c3)cc21 | 200 to 203
6 | CCCCCCCCOc1ccc(-c2nnn[nH]2)c(O)c1 | 142 to 146
7 | OCCCCOc1cnc(-c2ccccc2)c(-c2ccccc2)n1 | 93 to 95
8 | CCOC(=O)/C=C/c1cn(-c2ccc(C(F)(F)F)cn2)nc1C(C)C | 112 to 113
9 | O=C(c1ccccc1)c1ccc(CCl)cc1 | 109 to 111
10 | OC(CCN1CCN(c2ccc(F)cc2)CC1)c1cnn2c1CCCC2 (stereo not given) | 130 to 131
11 | O=C(Nc1ccc(-c2nnn[nH]2)cc1)C(=O)N1CCC(Cc2ccccc2)CC1 | 127 to 129
12 | O=C(Nc1ccccc1C(=O)NCc1ccccc1)N[C@@H](Cc1ccc(NC(=O)c2c(Cl)cccc2Cl)cc1)C(=O)O | 165
13 | Cc1ccc(Oc2ccncc2N)cn1 | 74 to 79
14 | C[C@@H](SCCc1nccn1C)[C@](O)(Cn1cncn1)c1ccc(F)cc1F (racemic) | 175 to 176
15 | Nc1c(Cl)cc(C(O)CNCCCCCCOCCc2ccccn2)cc1C(F)(F)F (stereo not given) | 51.5 to 53
16 | Nc1nc2ccccc2c2c1ncn2CCOCCCc1ccccn1 | 138 to 140
17 | COC(=O)C1Oc2ccccc2C(C)c2ccccc2O1 (stereo not given) | 95 to 120
18 | COC(=O)c1c[nH]c(CCC2CNc3nc(NC(=O)C(C)(C)C)nc(O)c3C2)c1 (stereo not given) | > 260
19 | CCOC(=O)c1ccc(OCCCCC(=O)c2ccc(Cl)s2)cc1 | 87 to 89
20 | c1ccc(CN2CCCC3(CC2)CC(c2ccccc2)=NO3)cc1 (stereo not given) | 42 to 57
21 | CC1(C)C(=O)Nc2cccc(O)c21 | 224 to 225
22 | CC(=O)Nc1cc(S(=O)(=O)c2ccccc2)ccc1NC(=O)C(C)(O)C(F)(F)F (stereo not given) | 205 to 207
23 | O=C1COC2(CCN(CCC3COc4ccccc4O3)CC2)CN1 (stereo not given) | 139 to 140

Row | SMILES | melting point [°C]
24 | CCCCC1(CCCC)c2cc(Br)ccc2-c2ccc(N(c3ccccc3)c3ccccc3)cc21 | 116 to 118
25 | CCCCCCCCCCCCSc1ccc2nn(-c3cc(C(C)(C)C)cc(C(C)(C)C)c3O)nc2c1 | 62 to 64
26 | O=C(OCc1ccccc1)n1ccc2c(O)cccc21 | 118 to 120
27 | CCOc1ccc2c(c1)C(C)(c1ccccc1Cl)C(=O)N2S(=O)(=O)c1ccc(NC(=O)N(CC)CC)cc1OC (stereo not given) | 137
28 | CCc1ccc(C(=O)C2=C(O)C(=O)N(c3ccc(C)nn3)C2c2ccc(OC(F)(F)F)cc2)cc1 (stereo not given) | 263 to 267
29 | N=C(N)Nc1ncc(CSCCNC2=NS(=O)N=C2N)s1 (stereo not given) | 85 to 132
30 | CC1(C)OC[C@H](COn2cnc3c(Cl)nc(NC=O)nc32)O1 | 145 to 148
31 | COCCOc1ccc(C(=O)C2=C(O)C(=O)N(c3ccc(C)nn3)C2c2ccc(OC(F)(F)F)cc2)cc1 (stereo not given) | 216 to 219
32 | O=C(O)[C@@H]1CSCN1C(=O)OCc1ccccc1 | 58 to 63
33 | COc1nc(N)nc2c1ncn2COC(CO)CO | 162 to 163
34 | CCSc1cn(C)cc(-c2cccc(C(F)(F)F)c2)c1=O | 84 to 85
35 | N#Cc1ccccc1Cn1cc(C(=O)C(=O)NC2=CC(=O)OC2)c2ccccc21 | 229 to 231
36 | N#Cc1cnc2sc(I)cc2c1Nc1cccc2cc[nH]c12 | > 245
37 | CCOC(=O)C1[C@H]2O[C@@H]3COC(C)(C)O[C@H]3C(=NO)[C@@H]12 (stereo not given in full) | 210 to 213
38 | CNc1nc(-n2cc(C(=O)O)c(=O)c3cc(F)c(F)c(Cl)c32)c(F)cc1F | 236 to 242
39 | CC(=O)NS(=O)(=O)c1cccc(N)c1 | 148 to 150
40 | CCCCNC(=O)c1ccc(N2CCN(c3ccncc3)CC2)cc1 | 172 to 174
41 | CC(C)c1cc(O)n(C)n1 | 120 to 122
42 | COP(=O)(OC)[C@H](C)NC(=O)[C@H](C)NC(=O)[C@H](C)NC(=O)CNC(=O)OCc1ccccc1 | 162 to 164
43 | O=C(Cn1c(-c2ccc(Br)cc2)nc2cccnc21)Nc1ccccn1 | 192 to 195
44 | O=C(CNc1ccccc1)N1CCC(Cc2ccccc2)CC1 | 107 to 109
45 | Cc1ccc(S(=O)(=O)Oc2ccc(F)cc2Cl)cc1 | 92 to 94
46 | O=C(c1ccc(-c2ccc(=O)[nH]n2)cc1)N1CCC[C@H]1CN1CCCC1 | 62 to 66

Row | SMILES | melting point [°C]
47 | CCON=C(C(C)=NO)c1ccc(OC[Si](C)(C)c2ccc(F)cc2)cc1 | 100 to 102
48 | Nc1cccc2c1OCC2 | 70 to 72
49 | COc1cc2c(cc1OC)C(O)(CN)CCC2 (stereo not given) | 107 to 109
50 | CC(C)(C)c1ccc(-c2cc3ccc(C(=O)O)cc3s2)cc1 | 318
51 | O=C(NCCCC1CC1)c1ccc(N2CCC(N3C(=O)C(F)(F)c4ccccc43)CC2)nn1 | 51 to 53
52 | O=C(O)c1ccc(NC(=O)c2ccc(F)cc2)cc1 | > 300
53 | CC(C)c1cc(C(=O)Nc2ccc(C(=O)O)cc2)oc1C(C)C | 120 to 121
54 | CCC1CCCN(C(=O)C2Cc3ccccc3N2c2ccc(=O)n(C)n2)C1 (stereo not given) | 150 to 154
55 | CON(c1ccc([N+](=O)[O-])cc1Cl)S(=O)(=O)c1ccc(Cl)c(Cl)c1 | 132 to 133
56 | Cc1cccc(-c2sc(N)nc2-c2ccnc(-c3ccc(OCC(N)=O)cc3)c2)n1 | 191
57 | CS(=O)(=O)CCOC(=O)NCCSc1ccc2nccn2n1 | 91 to 93
58 | COC(=O)C(OC)(OC)C(=O)Nc1cc(Cl)cc(Cl)c1 | 160 to 164
59 | CC(=O)SCC(CC1CN(Cc2ccccc2)CCO1)C(=O)Nc1cccc(C(=O)O)c1 (stereo not given) | 103 to 105
60 | CNc1nnc(-c2cccc(F)c2)c(=O)n1NC | 173 to 174
61 | N#Cc1c(Br)c(Br)n(Cc2ccccc2)c1-c1ccc(C(F)(F)F)cc1 | 145 to 147
62 | NC(=S)Nc1nncs1 | 253
63 | COc1cc(CC(=O)Nc2ccc(C3CN(C(=O)c4ccccc4)CC3C(=O)O)cc2)ccc1NC(=O)Nc1ccccc1C (stereo not given) | 248
64 | COC(=O)C1(CF)C=NN(C)N1 (stereo not given) | 64 to 66
65 | COC(=O)C1=C(C)NC(C)=C(C(=O)OCOC(=O)C(C)(C)C)C1c1cccc(Cl)c1Cl (single isomer, unassigned; (+)) | 154 to 155
66 | COc1ccc(Nc2ncccc2NS(=O)(=O)c2ccc(OC)cc2)cc1 | 145 to 147
67 | Cc1cnc(Oc2cccc(C(F)(F)F)c2)c(C(=O)O)c1 | 173 to 175

Next, values leading:

Row | melting point [°C] | SMILES
68 | 154 to 155 | CCCCCCN(Cc1cccnc1)C(Nc1ccc(OC)cc1OC)=C1C(=O)OC(C)(C)OC1=O
69 | 161 to 162 | CCn1c(CCOC(N)=O)nc(C(C)C)c1Sc1cc(Cl)cc(Cl)c1
70 | 145 to 147 | COC(=S)NCc1cn(-c2ccc(N3CCC(=O)CC3)c(F)c2)nn1
71 | 165 | Cc1ccc(CCCO)c(NCc2ccc3nc(NCCCN4CCOCC4)n(Cc4cccc5cccnc45)c3c2)c1
72 | 160 to 162 | COc1ccc(-c2nc3cccc(C(=O)NC4CC5CCCC(C4)N5C)c3o2)cc1 (stereo not given)
73 | 215 | COc1ccc(CN2C(=O)C(O)(c3ccncc3Cl)c3cc(Cl)ccc32)c(OC)c1 (stereo not given)
74 | 234 to 237 | CC(C)(CNC=O)c1ccc2nc(C3CCNCC3)[nH]c2c1
75 | 136 to 137 | CCn1ncc2c3onc(-c4cccc(F)c4)c3cnc21
76 | 96 to 97 | COc1ccc(CN2CCc3cc(OCc4ccccc4)c(OC)cc3C2)cc1
77 | 228 to 230 | CN(Cc1cccc2c1CN(C1CCC(=O)NC1=O)C2=O)C(=O)c1ccc(Cl)c(Cl)c1 (stereo not given)
78 | 200 to 202 | COc1cc(Nc2nccc(-c3ccc(O)cc3)n2)cc(OC)c1OC
79 | 76 to 78 | COc1ccc(Br)c2c1C(=O)C(C=O)C2 (stereo not given)
80 | 90 to 92.6 | CCOc1cc(C=O)ccc1OCC(=O)O
81 | 156 to 157 | CCC(=O)c1ccc(Cl)c2nc3n(c12)CCCN3c1ccc(Cl)cc1Cl
82 | 194 to 195 | Cc1nnc(-c2ccc3occ(-c4cnn(Cc5ccccc5)c4)c3n2)o1
83 | 167 to 168 | O=CC(=C(Cl)c1ccc2c(c1)OCO2)c1ccc2c(c1)OCO2
84 | 245 to 251 | COc1cc(/C=C/C(=O)Nc2ccccc2C(=O)O)ccc1OCc1cccnc1

Row | melting point [°C] | SMILES
85 | 43 to 44 | C=CCc1cc(Cl)cc2nc(Cc3ccc(OC)c(OC4CCCC4)c3)oc12
86 | 135 to 140 | COCC1(CC(=O)O)OCC(=O)c2c1[nH]c1ccccc21 (stereo not given)
87 | 188 to 189 | Brc1ccc(OC2CCN(c3nc4cccc5c4n3CCC5)CC2c2ccccc2)cc1 (stereo not given)
88 | 111 to 113 | CC(=O)N1CCN2c3c(cccc3C3CCCC32)C1 (stereo not given)
89 | 140 to 143 | Cc1cc(CC(=O)O)n(C)c1C(=O)c1ccc(Cl)cc1Cl
90 | 77 to 79 | CCCc1c(OC(C(=O)OCC)c2ccc(Cl)c(Cl)c2)ccc(C(C)=O)c1O (stereo not given)
91 | 160 | COc1ccc(CS(=O)CC(=O)NO)cc1 (stereo not given)
92 | 85 to 88 | Cn1c(C2CCN(C(=O)OC(C)(C)C)CC2)nc2cc(-c3ccc(S(C)(=O)=O)cc3F)ccc21
93 | 159 | CN1C(=O)CC[C@]2(C)c3ccc(-c4cccc5ccccc45)cc3CC[C@@H]12
94 | 88 | COc1ccc(C2CCCN(C(=O)C(F)(F)F)C2)cc1N (stereo not given)
95 | > 300 | Cc1ccccc1C=C1CCc2c1oc1ccc(C(=O)O)cc1c2=O
96 | 220 to 222 | Cc1c(NC(=O)c2ccc(-c3ccc(C(F)(F)F)cc3)cc2)ccc2cc(CN3CCCC3)cnc12
97 | 30 to 31.5 | C=C(C)COc1ccc(CC(=O)OC)cc1[N+](=O)[O-]
98 | 190 | COc1cccc2c1C1=C(CC2)NC(=O)CC1
99 | 163 to 164 | COc1ccc(C(=O)Cc2ccc(Br)cc2)c(Cl)c1Cl
100 | 90 to 92 | O=C(Nc1ccc(OCCCN2CCOCC2)c2ccccc12)c1cc(F)cc(N2CCCCC2)c1
